Assay results taken from patent US6576635B2, “Compositions comprising trimetrexate” (MedImmune Oncology, Inc., priority 1999, dated 2003).

Key:
[1] = Relative thermal stability of reconstituted dosage forms; type: physicochemical; set-up: key to Appearance: S = satisfactory (pale green-yellow solution); U = unsatisfactory (discolored solution); conditions: 25 ° C.
Experimental: One bulk solution of each dosage form was prepared by combining its vials, held at 25 ° C. and 60% relative humidity in closed containers and tested over time for trimetrexate decomposition and observed for physical appearance. Both dosage forms were tested according to the method in Example 2, except the amount of ascorbic acid equivalent to that in the dosage form was added to the trimetrexate standards being used to evaluate the ascorbate formulation to give equivalent response factors.

[2] = Relative thermal stability of solid dosage forms; type: physicochemical; set-up: key to Appearance: S = satisfactory (pale green-yellow solid); conditions: 40° C.
Experimental: Both dosage forms were tested according to the method in Example 2, except the amount of ascorbic acid equivalent to that in the dosage form was added to the trimetrexate HPLC standards being used to evaluate the ascorbate formulation to give equivalent response factors.

[3] = Relative light stability of dosage forms; type: physicochemical
Text: (§1) Dosage forms of trimetrexate glucuronate and trimetrexate ascorbate were dispersed in thin films on watch glasses and exposed to illumination in an air atmosphere over time. The overall illumination was approximately 0.28 million lux hours per day and the integrated near ultraviolet energy was approximately 210 watt hours per square meter per day. Therefore at day 9 the dosage forms had received approximately 2.5 million lux hours of illumination and approximately 1900 watt hours per square meter of integrated near ultraviolet energy. The dosage forms were tested over time for trimetrexate decomposition and observed for physical appearance. Both dosage forms were tested according to the method in Example 2, except the amount of ascorbic acid equivalent to that in the dosage form was added to the trimetrexate HPLC standards being used to evaluate the ascorbate formulation to give equivalent response factors.
(§2) In Table 9, the total quantity of trimetrexate free base is expressed as percent of the initial amount of trimetrexate, and the total amount of impurities is expressed as the sum of the weight percent of the aldehyde degradant and area percent of all other impurities. The oxidative degradation pathway of trimetrexate generates the aldehyde degradant. Its response factor has been determined to be 0.62 relative to that of trimetrexate. Therefore the weight percent of the aldehyde degradant is obtained by dividing the area percent value by the response factor of 0.62.

[4] = Relative light stability of dosage forms; type: physicochemical; set-up: key: S = satisfactory (pale green-yellow solid)
Text: as §1, §2

[5] = Relative light stability of dosage forms; type: physicochemical; set-up: key: S = satisfactory (pale green-yellow solid); U = unsatisfactory (discolored solid)
Text: as §1, §2

[6] = in 1:1 methanol/water; cited from earlier work
[7] = test system: murine cell lines such as L1210, L5178Y, S-180, W-256; conditions: cited from earlier work
[8] = test system: murine tumors such as B16 melanoma, colon 26 and 38, L1210 and P388 leukemia and CD8F mammary tumors; conditions: cited from earlier work
[9] = test system: human tumor cells lines derived from breast, colon, lung, ovary, renal and melanoma cells; conditions: cited from earlier work
P450 enzyme system = conditions: cited from earlier work
[10] = exposed to oxygen at room temperature; cited from earlier work
[11] = cited from earlier work
[12] = day 0, reconstituted ~12.5 mg/ml, 60% RH
[13] = day 0, reconstituted ~12.5 mg/ml, 60% RH, HPLC area
[14] = day 0, reconstituted ~12.5 mg/ml, 60% relative humidity
[15] = day 0 of illumination, weight percent aldehyde + area percent other impurities
[16] = day 0, thin film, illumination ~0.28 million lux hours per day, air
[17] = day 9 of illumination (~2.5 million lux hours)

**Q.** What does the source list for `COc1cc(NCc2ccc3nc(N)nc(N)c3c2C)cc(OC)c1OC.O=C1O[C@H]([C@@H](O)CO)C(O)=C1O` [Trimetrexate Ascorbate]?
**A.** % Label Claim [1, 12]: 99.0%; % Total Imp. [1, 13]: 0.1%; Appearance [1, 14]: S; % Label Claim ([1]; day 1, reconstituted, 60% RH): 98.5%; % Total Imp. ([1]; day 1, reconstituted, 60% RH): 0.1%; Appearance ([1]; day 1, reconstituted, 60% RH): S; % Label Claim ([1]; day 2, reconstituted, 60% RH): 98.4%; % Total Imp. ([1]; day 2, reconstituted, 60% RH): 0.1%; Appearance ([1]; day 2, reconstituted, 60% RH): S; % Label Claim ([1]; day 3, reconstituted, 60% RH): 98.8%; % Total Imp. ([1]; day 3, reconstituted, 60% RH): 0.2%; Appearance ([1]; day 3, reconstituted, 60% RH): S; % Label Claim ([1]; day 4, reconstituted, 60% RH): 101.0%; % Total Imp. ([1]; day 4, reconstituted, 60% RH): 0.4%; Appearance ([1]; day 4, reconstituted, 60% RH): S; % Label Claim ([1]; day 5, reconstituted, 60% RH): 98.2%; % Total Imp. ([1]; day 5, reconstituted, 60% RH): 0.3%; Appearance ([1]; day 5, reconstituted, 60% RH): S; % Label Claim ([1]; day 6, reconstituted, 60% RH): 96.5%; % Total Imp. ([1]; day 6, reconstituted, 60% RH): 0.4%; Appearance ([1]; day 6, reconstituted, 60% RH): S; % Label Claim ([1]; day 7, reconstituted, 60% RH): 98.7%; % Total Imp. ([1]; day 7, reconstituted, 60% RH): 0.6%; Appearance ([1]; day 7, reconstituted, 60% RH): S; % Label Claim ([2]; 1 month, 75% RH): 100.0%; % Total Imp. ([2]; 1 month, 75% RH, HPLC area): <0.1%; Appearance ([2]; 1 month, 75% relative humidity): S; % Label Claim ([2]; 2 months, 75% RH): 99.6%; % Total Imp. ([2]; 2 months, 75% RH): <0.1%; Appearance ([2]; 2 months, 75% RH): S; % Label Claim ([2]; 3 months, 75% RH): 98.9%; % Total Imp. ([2]; 3 months, 75% RH): <0.1%; Appearance ([2]; 3 months, 75% RH): S; % Aldehyde Degredant (w/w) ([3]; day 0 of illumination): 0.1%; % TMX of Initial ([3]; day 0 of illumination): 100.0%; % Total Imp. [3, 15]: 0.1%; % Aldehyde Degredant (w/w) ([3]; day 2 of illumination): 0.1%; % TMX of Initial ([3]; day 2 of illumination): 98.3%; % Total Imp. ([3]; day 2 of illumination): 0.4%; % Aldehyde Degredant (w/w) ([3]; day 4 of illumination): 0.1%; % TMX of Initial ([3]; day 4 of illumination): 97.7%; % Total Imp. ([3]; day 4 of illumination): 0.6%; % Aldehyde Degredant (w/w) ([3]; day 6 of illumination): 0.1%; % TMX of Initial ([3]; day 6 of illumination): 97.1%; % Total Imp. ([3]; day 6 of illumination): 1.0%; % Aldehyde Degredant (w/w) ([3]; day 9 of illumination): 0.2%; % TMX of Initial ([3]; day 9 of illumination): 96.1%; % Total Imp. ([3]; day 9 of illumination): 1.4%; Appearance [4, 16]: S; Appearance ([4]; day 2 of illumination): S; Appearance ([4]; day 4 of illumination): S; Appearance ([4]; day 6 of illumination): S; Appearance [4, 17]: S

**Q.** For `COc1cc(NCc2ccc3nc(N)nc(N)c3c2C)cc(OC)c1OC.O=C(O)[C@H]1O[C@H](O)[C@H](O)[C@@H](O)[C@@H]1O` [Trimetrexate Glucuronate], which “% Label Claim” value [1, 12] is on record?
**A.** 95.9%

**Q.** And the “% Total Imp.” value [1, 13]?
**A.** 0.2%

**Q.** And the Appearance [1, 14]?
**A.** S

**Q.** What about the “% Label Claim” value ([1]; day 1, reconstituted, 60% RH) of the same molecule?
**A.** 98.6%

**Q.** What about the “% Total Imp.” value ([1]; day 1, reconstituted, 60% RH) of the same molecule?
**A.** 0.2%

**Q.** What about the Appearance ([1]; day 1, reconstituted, 60% RH) of the same molecule?
**A.** S

**Q.** What about the “% Label Claim” value ([1]; day 2, reconstituted, 60% RH) of the same molecule?
**A.** 96.8%

**Q.** And the “% Total Imp.” value ([1]; day 2, reconstituted, 60% RH)?
**A.** 0.4%

**Q.** What about the Appearance ([1]; day 2, reconstituted, 60% RH) of the same molecule?
**A.** S

**Q.** And the “% Label Claim” value ([1]; day 3, reconstituted, 60% RH)?
**A.** 97.1%

**Q.** And the “% Total Imp.” value ([1]; day 3, reconstituted, 60% RH)?
**A.** 0.5%

**Q.** What about the Appearance ([1]; day 3, reconstituted, 60% RH) of the same molecule?
**A.** U

**Q.** What about the “% Label Claim” value ([1]; day 4, reconstituted, 60% RH) of the same molecule?
**A.** 96.1%

**Q.** And the “% Total Imp.” value ([1]; day 4, reconstituted, 60% RH)?
**A.** 0.8%

**Q.** And the Appearance ([1]; day 4, reconstituted, 60% RH)?
**A.** U

**Q.** And the “% Label Claim” value ([1]; day 5, reconstituted, 60% RH)?
**A.** 96.5%

**Q.** What about the “% Total Imp.” value ([1]; day 5, reconstituted, 60% RH) of the same molecule?
**A.** 1.1%

**Q.** What about the Appearance ([1]; day 5, reconstituted, 60% RH) of the same molecule?
**A.** U

**Q.** What about the “% Label Claim” value ([1]; day 6, reconstituted, 60% RH) of the same molecule?
**A.** 95.0%

**Q.** What about the “% Total Imp.” value ([1]; day 6, reconstituted, 60% RH) of the same molecule?
**A.** 1.5%

**Q.** And the Appearance ([1]; day 6, reconstituted, 60% RH)?
**A.** U

**Q.** And the “% Label Claim” value ([1]; day 7, reconstituted, 60% RH)?
**A.** 92.1%

**Q.** What about the “% Total Imp.” value ([1]; day 7, reconstituted, 60% RH) of the same molecule?
**A.** 1.9%

**Q.** What about the Appearance ([1]; day 7, reconstituted, 60% RH) of the same molecule?
**A.** U

**Q.** And the “% Label Claim” value ([2]; 1 month, 75% RH)?
**A.** 99.6%

**Q.** What about the “% Total Imp.” value ([2]; 1 month, 75% RH, HPLC area) of the same molecule?
**A.** 0.1%

**Q.** What about the Appearance ([2]; 1 month, 75% relative humidity) of the same molecule?
**A.** S

**Q.** What about the “% Label Claim” value ([2]; 2 months, 75% RH) of the same molecule?
**A.** 100.7%

**Q.** And the “% Total Imp.” value ([2]; 2 months, 75% RH)?
**A.** 0.2%

**Q.** And the Appearance ([2]; 2 months, 75% RH)?
**A.** S

**Q.** And the “% Label Claim” value ([2]; 3 months, 75% RH)?
**A.** 98.0%

**Q.** And the “% Total Imp.” value ([2]; 3 months, 75% RH)?
**A.** 0.3%

**Q.** What about the Appearance ([2]; 3 months, 75% RH) of the same molecule?
**A.** S

**Q.** And the “% Aldehyde Degredant (w/w)” value ([3]; day 0 of illumination)?
**A.** 0.3%

**Q.** What about the “% TMX of Initial” value ([3]; day 0 of illumination) of the same molecule?
**A.** 100.0%

**Q.** What about the “% Total Imp.” value [3, 15] of the same molecule?
**A.** 0.9%

**Q.** And the “% Aldehyde Degredant (w/w)” value ([3]; day 2 of illumination)?
**A.** 2.0%

**Q.** And the “% TMX of Initial” value ([3]; day 2 of illumination)?
**A.** 94.4%

**Q.** What about the “% Total Imp.” value ([3]; day 2 of illumination) of the same molecule?
**A.** 3.1%

**Q.** And the “% Aldehyde Degredant (w/w)” value ([3]; day 4 of illumination)?
**A.** 3.8%

**Q.** And the “% TMX of Initial” value ([3]; day 4 of illumination)?
**A.** 92.4%

**Q.** And the “% Total Imp.” value ([3]; day 4 of illumination)?
**A.** 5.6%

**Q.** And the “% Aldehyde Degredant (w/w)” value ([3]; day 6 of illumination)?
**A.** 5.6%

**Q.** What about the “% TMX of Initial” value ([3]; day 6 of illumination) of the same molecule?
**A.** 87.9%

**Q.** What about the “% Total Imp.” value ([3]; day 6 of illumination) of the same molecule?
**A.** 8.1%

**Q.** And the “% Aldehyde Degredant (w/w)” value ([3]; day 9 of illumination)?
**A.** 8.2%

**Q.** And the “% TMX of Initial” value ([3]; day 9 of illumination)?
**A.** 83.6%

**Q.** And the “% Total Imp.” value ([3]; day 9 of illumination)?
**A.** 11.8%

**Q.** And the Appearance [4, 16]?
**A.** S

**Q.** What about the Appearance ([5]; day 2 of illumination) of the same molecule?
**A.** U

**Q.** And the Appearance ([5]; day 4 of illumination)?
**A.** U

**Q.** What about the Appearance ([5]; day 6 of illumination) of the same molecule?
**A.** U

**Q.** What about the Appearance [5, 17] of the same molecule?
**A.** U

**Q.** Which results are given for `COc1cc(NCc2ccc3nc(N)nc(N)c3c2C)cc(OC)c1OC` [trimetrexate free base, 2,4-diamino-5-methyl-6-[(3,4,5-trimethoxyanilino)methyl]quinazoline]?
**A.** pKa [6]: 8.0; in vitro antitumor activity [7]: in vitro antitumor activity; in vivo utility against murine tumors [8]: in vivo utility; in vitro activity against human tumor cell lines [9]: in vitro activity; metabolism (P450 enzyme system): metabolized by a P450 enzyme system; decomposition [10]: decomposes over time; water solubility [11]: < 100 µg/mL
